Patent publication US10029986B2, “Alkynyl pyridine-substituted amide compound and pesticide” (NISSAN CHEMICAL INDUSTRIES, LTD., priority 2014, dated 2018)

Legend:
Botrytis cinerea [1] = test: Test on the preventive effect against cucumber gray mold (mycelium inoculation); assay type: in vivo; conditions: 48 h, test solution A 500 ppm, 5 ml per pot, cucumber cotyledon, agar block inoculation, 2 days at 20° C.
Outline: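 Cucumber cotyledons (Sagami Hanjiro) were sprayed with 5 ml per pot of a 500 ppm dilution of a 20 wt % emulsifiable concentrate. Next day, mycelial agar plugs of Botrytis cinerea were placed on cotyledons, held humid at 20° C for 2 days. Lesion proportion gave the control value; duplicate.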

Botrytis cinerea [2] = test: Test on the preventive effect against cucumber gray mold (spore inoculation); assay type: in vivo; conditions: 72 h, test solution A 500 ppm, 5 ml per pot, cucumber cut leaves, conidium inoculation, 3 days at 20° C.
Outline: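 Cotyledon-stage cucumber (Sagami Hanjiro) sprayed with 500 ppm compound from emulsifiable concentrate; detached treated leaves inoculated with B. cinerea conidia in PDA (1:1). After 3 days at 20 °C, humid, lesion proportion gave control value; duplicate test.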

[3] = system: Southern root-knot nematode (Meloidogyne incoqnita); test: Insecticidal test against Southern root-knot nematode (eggs, 96 well plate); assay type: in vivo; conditions: 96 h, test solution B 100 ppm, 10 μl per well, 25° C. dark, 4 days after treatment, read-out: efficacy (unhatched eggs + inactive larvae relative to non-treated)
Protocol: (§1) Compounds of the present invention were dissolved in dimethyl sulfoxide to prepare 1 wt % solutions. Then, distilled water was added to dilute the solutions to the prescribed concentration (100 ppm), and the obtained solutions were used in the following the Test Examples 9 to 12. 60 μl of a potato dextrose 1% agar medium was added to each well of a 96 well plate, and 30 μl of sterilized water containing eggs of Southern root-knot nematode (Meloidogyne incoqnita) (10 eggs/3 μl) was added to each well. Further, 10 μl per well of test solution B of the compounds of the present invention was added, and the plate was left at rest at 25° C. under dark conditions.

Asperaillus niger = test: Test on the antifungal activity against Asperaillus niger; assay type: cell-based; conditions: 48 h; test solution B 100 ppm, 10 μl per well, 96 well plate, 25° C. dark, 2 days after treatment; read-out: efficacy (flora area ratio relative to non-treated well)
Protocol: as §1, with “spores” for “eggs”, “Asperaillus niger” for “Southern root-knot nematode (Meloidogyne incoqnita)”, “spores/3” for “eggs/3”, “conditions. 2 days after treatment, the flora area ratio (%) was determined to calculate the efficacy (%) relative to the non-treated well in accordance with the following formula. Efficacy (%)=[1−(flora area ratio in treated plot/flora area ratio in non-treated well)]×100” for “conditions.”

Sclerotinia sclerotiorum = test: Test on the preventive effect against cucumber stem rot; assay type: in vivo; conditions: 48 h, test solution A 500 ppm, 5 ml per pot, agar block inoculation, 2 days at 20° C.
Outline: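 Cucumber (Sagami Hanjiro) at cotyledon stage sprayed with 5 ml/pot of 500 ppm compound from a 20 wt % emulsifiable concentrate, air-dried, then inoculated on seed leaves with agar blocks of S. sclerotiorum grown on PDA. Kept humid at 20° C for 2 days; lesion proportion scored and control value calculated, in duplicate.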

[4] = system: Barber pole worm (Haemonchus contortus); test: Insecticidal test against Barber pole worm (eggs, 96 well plate); assay type: in vivo; conditions: 96 h, test solution B 100 ppm, 10 μl per well, 25° C. dark, 4 days after treatment, read-out: efficacy (unhatched eggs and inactive larvae relative to non-treated)
Protocol: as §1, with “Barber pole worm (Haemonchus contortus)” for “Southern root-knot nematode (Meloidogyne incoqnita)”

SMILES | pest or weed control at 500 µg/mL (Botrytis cinerea [1]) [%] | pest or weed control at 500 µg/mL (Botrytis cinerea [2]) [%] | pest or weed control at 100 µg/mL [3] [%] | inhibition of growth at 100 µg/mL (Asperaillus niger) [%] | pest or weed control at 500 µg/mL (Sclerotinia sclerotiorum) [%] | pest or weed control at 100 µg/mL [4] [%]
COC(c1ncc(C#CC2CC2)cc1Cl)C(C)NC(=O)c1cn(C)nc1C(F)F (stereo not drawn) [8-028, N-[2-[3-chloro-5-(cyclopropylethynyl)pyridin-2-yl]-2-methoxy-1-methylethyl]-3-difluoromethyl-1-methyl-1H-pyrazole-4-carboxamide] | ≥ 70 | ≥ 70 | ≥ 50 | ≥ 50 | ≥ 70 | ≥ 50
C=C(CNC(=O)c1cn(C)nc1C(F)F)c1ncc(C#CC2CC2)cc1Cl [8-011, N-[2-[3-chloro-5-(cyclopropylethynyl)pyridin-2-yl]-2-propenyl]-3-difluoromethyl-1-methyl-1H-pyrazole-4-carboxamide] | ≥ 70 | ≥ 70 | ≥ 50 | ≥ 50 | ≥ 70 | ≥ 50
CC(CNC(=O)c1ccccc1C(F)(F)F)c1ncc(C#CC2CC2)cc1Cl (stereo not drawn) [1-007, N-[2-[3-chloro-5-(cyclopropylethynyl)pyridin-2-yl]propyl]-2-(trifluoromethyl)benzamide] | ≥ 70 | ≥ 70 | ≥ 50 | ≥ 50 | ≥ 70 | ≥ 50
O=C(NCC(c1ncc(C#CC2CC2)cc1Cl)C1CC1)c1cccnc1C(F)F (stereo not drawn) [3-008] | ≥ 70 | ≥ 70 | ≥ 50 | ≥ 50 | ≥ 70 | ≥ 50
COC(CNC(=O)c1cn(C)nc1C(F)F)c1ncc(C#CC2CC2)cc1Cl (stereo not drawn) [8-019] | ≥ 70 | ≥ 70 | ≥ 50 | ≥ 50 | ≥ 70 | ≥ 50
CC(CNC(=O)c1cn(C)nc1C(F)F)c1ncc(C#CC2CC2)cc1Cl (stereo not drawn) [8-007] | ≥ 70 | ≥ 70 | ≥ 50 | ≥ 50 | ≥ 70 | ≥ 50
CC(C)(CNC(=O)c1ccccc1C(F)(F)F)c1ncc(C#CC2CC2)cc1Cl [1-008] | ≥ 70 | ≥ 70 | ≥ 50 | ≥ 50 | ≥ 70 | ≥ 50
Cn1cc(C(=O)NCCc2ncc(C#CC3CC3)cc2Cl)c(C(F)F)n1 [8-001] | ≥ 70 | ≥ 70 | ≥ 50 | ≥ 50 | ≥ 70 | ≥ 50
Cn1cc(C(=O)NCC(C)(C)c2ncc(C#CC3CC3)cc2Cl)c(C(F)F)n1 [8-008] | ≥ 70 | ≥ 70 | ≥ 50 | ≥ 50 | ≥ 70 | ≥ 50
O=C(NCC(F)(F)c1ncc(C#CC2CC2)cc1Cl)c1ccccc1C(F)(F)F [1-005] | ≥ 70 | ≥ 70 | ≥ 50 | ≥ 50 | ≥ 70 | ≥ 50
C=C(CNC(=O)c1ccccc1C(F)(F)F)c1ncc(C#CC)cc1Cl [1-012, N-[2-[3-chloro-5-(1-propynyl)pyridin-2-yl]-2-propenyl]-2-(trifluoromethyl)benzamide] | ≥ 70 | ≥ 70 | ≥ 50 | ≥ 50 | ≥ 70 | ≥ 50
